In patent US20220273659A1, “HETEROCYCLIC COMPOUNDS AS KINASE INHIBITORS” (NUVATION BIO INC., priority 2019, published 2022):
Read-outs that look alike come from different tables or passages of the source.

Key:
CDK4 = molecular target: T1, CDK4 (Homo sapiens, UniProt P11802); assay: In vitro kinase inhibition IC50, luminescence (ADP Glo), retinoblastoma substrate; assay type: biochemical; conditions: read-out: CDK4/D1 IC50
T1 construct: purchased Invitrogen PR8064A
Outline: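 CDK4 enzyme (5 nM, Invitrogen) was combined with test compound and a mix of retinoblastoma substrate (1 μM) plus ATP (25 μM) in kinase buffer, 30 μL/well in 96-well half area white plates. After 2H at room temperature, ADP Glo reagent stopped the reaction for 45 min, then detection reagent was added and luminescence was read.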

CDK6 = molecular target: T2, CDK6 (Homo sapiens, UniProt Q00534); assay: as above; assay type: biochemical; conditions: read-out: CDK6/D1 IC50
T2 construct: purchased Invitrogen PR8422B
T2 sequence (Q00534 whole entry): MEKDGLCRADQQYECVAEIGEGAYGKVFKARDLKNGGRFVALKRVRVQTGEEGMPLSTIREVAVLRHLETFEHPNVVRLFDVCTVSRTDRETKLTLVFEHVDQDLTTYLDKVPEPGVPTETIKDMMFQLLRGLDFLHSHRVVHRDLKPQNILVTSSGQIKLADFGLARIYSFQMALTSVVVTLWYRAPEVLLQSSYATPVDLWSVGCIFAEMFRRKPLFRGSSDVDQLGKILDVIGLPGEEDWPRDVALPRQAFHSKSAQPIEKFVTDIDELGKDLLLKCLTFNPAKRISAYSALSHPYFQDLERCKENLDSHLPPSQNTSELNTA
T2 sequence (P24385 whole entry partner): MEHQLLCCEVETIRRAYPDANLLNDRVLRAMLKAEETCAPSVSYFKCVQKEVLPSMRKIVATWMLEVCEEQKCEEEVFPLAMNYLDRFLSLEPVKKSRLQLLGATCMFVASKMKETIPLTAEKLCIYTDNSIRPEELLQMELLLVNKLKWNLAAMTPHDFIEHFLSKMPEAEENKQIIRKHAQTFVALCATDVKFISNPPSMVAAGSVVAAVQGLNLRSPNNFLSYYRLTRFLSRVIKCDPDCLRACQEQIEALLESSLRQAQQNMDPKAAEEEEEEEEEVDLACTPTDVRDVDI
Outline: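 Recombinant CDK6 (5 nM) with retinoblastoma substrate (1 μM) and 25 μM ATP, compound at final 0.1–200 nM, incubated 2 h at room temperature. ADP formed detected by ADP-Glo luminescence. IC50 from four-parameter logistic fit of percent inhibition.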

CDK1 (cyclin B) = molecular target: T3, CDK1 (cyclin B) (Homo sapiens, UniProt P06493); assay: Z'-LYTE kinase assay; assay type: biochemical
T3 construct: purchased Invitrogen Life Technologies (assay service)
T3 sequence (P06493 whole entry): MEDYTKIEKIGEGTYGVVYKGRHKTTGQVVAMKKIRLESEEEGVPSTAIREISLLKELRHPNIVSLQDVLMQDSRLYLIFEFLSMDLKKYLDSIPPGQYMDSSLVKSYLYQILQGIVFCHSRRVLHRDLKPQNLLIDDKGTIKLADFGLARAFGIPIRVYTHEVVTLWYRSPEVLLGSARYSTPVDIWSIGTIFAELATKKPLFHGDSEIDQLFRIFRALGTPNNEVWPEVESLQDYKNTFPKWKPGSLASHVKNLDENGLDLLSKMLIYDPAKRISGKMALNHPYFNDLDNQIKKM
T3 sequence (P14635 whole entry partner): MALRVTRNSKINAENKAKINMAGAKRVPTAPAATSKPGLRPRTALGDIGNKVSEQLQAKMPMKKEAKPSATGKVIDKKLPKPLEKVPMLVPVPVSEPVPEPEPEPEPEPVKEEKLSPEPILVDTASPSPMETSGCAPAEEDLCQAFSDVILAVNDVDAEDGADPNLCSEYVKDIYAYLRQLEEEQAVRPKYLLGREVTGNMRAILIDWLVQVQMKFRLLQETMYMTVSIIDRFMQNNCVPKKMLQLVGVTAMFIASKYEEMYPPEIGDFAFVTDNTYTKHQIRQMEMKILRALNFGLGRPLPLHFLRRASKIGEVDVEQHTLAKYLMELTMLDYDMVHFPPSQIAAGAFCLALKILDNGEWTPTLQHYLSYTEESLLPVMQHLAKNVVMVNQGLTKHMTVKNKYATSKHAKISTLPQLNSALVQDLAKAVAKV
Experimental: The plates were shaken for 30 seconds, and incubated for 60 minutes at room temperature. […] The plates were read on fluorescence plate reader with Dual emission at 445 nm and 520 nm.
The following equations were used for Z′-LYTE™ Screening Assay Data Analysis.

CDK2 (cyclin A) = molecular target: T4, CDK2 (cyclin A) (Homo sapiens, UniProt P24941); assay: Z'-LYTE kinase assay; assay type: biochemical
T4 construct: purchased Invitrogen Life Technologies (assay service)
Experimental: IC50 values of compounds against CDK2 (cyclin A) were determined by Z′-LYTE™ These screening assays were performed at Invitrogen Life Technologies (Grand Island, N.Y.) on a low volume NBS, black 384-well plate (#4514, Corning). 0.1 μL of 100×test compound in 100% DMSO (at specific solutions) was mixed with 2.4 μL of Kinase Buffer (50 mM HEPES pH 7.5, 0.01% BRIJ-35, 10 mM MgCl2, 1 mM EGTA), 5 μL of 2× Kinase (1.22-10.3 ng CDK2/cyclin A)/Peptide (2 μM Ser/Thr 12), and 2.5 μL of 4×ATP solution (31 μM). The plates were shaken for 30 seconds, and incubated for 60 minutes at room temperature. Development Reagent Solution (5 μL of 1:1024 dilution) was added to the plates followed with another 30-second plate shake and the plates were further incubated at room temperature for one hour. The plates were read on fluorescence plate reader with Dual emission at 445 nm and 520 nm.
The following equations were used for Z′-LYTE™ Screening Assay Data Analysis. Percent inhibition (100-% activity) was fitted to the “four-parameter logistic model” in XLfit for determination of IC50 values.

[1] = system: DU4475 breast carcinoma cells; assay: Cancer cell proliferation assay, single agent (cell viability); assay type: cell-based; conditions: Homo sapiens, DU-4475; Table 4; Rb negative; treatment 144 Hr with medium change at 72 Hr; Cell Titer-Glo or resazurin
Outline: (§1)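 Cells seeded day 1, then exposed on day 2 to 7–9 compound concentrations (e.g. 1.1 nM–10 μM); BT-549 for 24 h, MCF-7 and DU4475 for 144 h with medium change at 72 h. Viability by CellTiter-Glo or resazurin; IC50 from variable-slope sigmoidal fit.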

[2] = system: MCF-7 breast adenocarcinoma cells; assay: as above; assay type: cell-based; conditions: Homo sapiens, MCF7, Table 4; Rb positive; treatment 144 Hr with medium change at 72 Hr; Cell Titer-Glo or resazurin
Outline: as §1

T1 sequence (P11802 whole entry): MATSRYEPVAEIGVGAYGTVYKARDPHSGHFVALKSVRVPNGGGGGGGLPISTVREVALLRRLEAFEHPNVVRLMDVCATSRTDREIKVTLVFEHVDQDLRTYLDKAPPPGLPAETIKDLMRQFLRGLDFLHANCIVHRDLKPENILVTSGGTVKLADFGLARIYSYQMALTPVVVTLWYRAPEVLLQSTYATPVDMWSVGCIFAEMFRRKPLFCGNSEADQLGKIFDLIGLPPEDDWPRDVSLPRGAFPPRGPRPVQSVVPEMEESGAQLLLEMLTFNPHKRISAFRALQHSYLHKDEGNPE
T1 sequence (P24385 whole entry partner): as the sequence (P24385 whole entry partner) above

| Structure (SMILES) | IC50 (CDK4) | IC50 (CDK6) | IC50 (CDK1 (cyclin B)) | IC50 (CDK2 (cyclin A)) | IC50 (CDK1 (cyclin B); read-out: CDK1/B IC50) | IC50 [1] | IC50 [2] |
| --- | --- | --- | --- | --- | --- | --- | --- |
| Cn1ccc(S(=O)(=O)N2CCC(Nc3ncc4cc(C(F)F)c(=O)n([C@@H]5C[C@H]6CC[C@@H]5C6)c4n3)CC2)n1 [Compound 396, 8-((1R,2R,4S)-bicyclo[2.2.1]heptan-2-yl)-6-(difluoromethyl)-2-((1-((1-methyl-1H-pyrazol-3-yl)sulfonyl)piperidin-4-yl)amino)pyrido[2,3-d]pyrimidin-7(8H)-one] | 17 nM | 7 nM | 100 nM | 14 nM | – | – | – |
| N#Cc1cc2cnc(Nc3ccc4c(n3)CCNC4)nc2n(C2CCCC2)c1=O [Compound No. 61, 8-cyclopentyl-7-oxo-2-((5,6,7,8-tetrahydro-1,6-naphthyridin-2-yl)amino)-7,8-dihydropyrido[2,3-d]pyrimidine-6-carbonitrile] | 98 nM | 54 nM | – | 2780 nM | > 5000 nM | 4480 nM | 2730 nM |
| CN(C)CCN1CCc2cc(Nc3ncc4cc(C#N)c(=O)n(C5CCCC5)c4n3)ccc2C1 [Compound No. 63, 8-cyclopentyl-2-((2-(2-(dimethylamino)ethyl)-1,2,3,4-tetrahydroisoquinolin-6-yl)amino)-7-oxo-7,8-dihydropyrido[2,3-d]pyrimidine-6-carbonitrile] | 11 nM | 4 nM | – | 190 nM | 655 nM | 1440 nM | 266 nM |
| N#Cc1cc2cnc(Nc3ccc4c(c3)CN(CCN)CC4)nc2n(C2CCCC2)c1=O [Compound No. 65, 2-((2-(2-aminoethyl)-1,2,3,4-tetrahydroisoquinolin-7-yl)amino)-8-cyclopentyl-7-oxo-7,8-dihydropyrido[2,3-d]pyrimidine-6-carbonitrile] | 17 nM | 15 nM | – | 169 nM | 791 nM | 1990 nM | 569 nM |
| N#Cc1cc2cnc(Nc3ccc4c(c3)CCN(CC(N)=O)C4)nc2n(C2CCCC2)c1=O [Compound No. 69, 2-(6-((6-cyano-8-cyclopentyl-7-oxo-7,8-dihydropyrido[2,3-d]pyrimidin-2-yl)amino)-3,4-dihydroisoquinolin-2(1H)-yl)acetamide] | 12 nM | 7 nM | – | 252 nM | 683 nM | 1680 nM | 1990 nM |
| N#Cc1cc2cnc(Nc3ccc4c(c3)CCN(C(=O)CO)C4)nc2n(C2CCCC2)c1=O [Compound No. 70, 8-cyclopentyl-2-((2-(2-hydroxyacetyl)-1,2,3,4-tetrahydroisoquinolin-6-yl)amino)-7-oxo-7,8-dihydropyrido[2,3-d]pyrimidine-6-carbonitrile] | 12 nM | 6 nM | – | 27 nM | 354 nM | 1180 nM | 818 nM |
| CS(=O)(=O)N1CCC(Nc2cc3c(cn2)cc(C#N)c(=O)n3C2CCCC2)CC1 [Compound No. 303, 1-cyclopentyl-7-((1-(methylsulfonyl)piperidin-4-yl)amino)-2-oxo-1,2-dihydro-1,6-naphthyridine-3-carbonitrile] | 3 nM | 3 nM | – | 4.5 nM | 97 nM | 710 nM | 660 nM |
| N#Cc1cc2cnc(NC3CCCC3O)nc2n(C2CCCC2)c1=O (stereo not shown) [Compound No. 349, 8-cyclopentyl-2-((2-hydroxycyclopentyl)amino)-7-oxo-7,8-dihydropyrido[2,3-d]pyrimidine-6-carbonitrile] | 29 nM | 62 nM | – | 475 nM | 735 nM | 5660 nM | 770 nM |
| CC(C)S(=O)(=O)N1CCC(Nc2ncc3cc(C#N)c(=O)n(C4CCCC4)c3n2)CC1 [Compound No. 355, 8-cyclopentyl-2-((1-(isopropylsulfonyl)piperidin-4-yl)amino)-7-oxo-7,8-dihydropyrido[2,3-d]pyrimidine-6-carbonitrile] | 6.5 nM | 8 nM | 362 nM | 20 nM | – | 1520 nM | 495 nM |
| CS(=O)(=O)N1CCC(Nc2ncc3cc(C#N)c(=O)n(C45CC(C4)C5)c3n2)CC1 [Compound No. 369, 8-(bicyclo[1.1.1]pentan-1-yl)-2-((1-(methylsulfonyl)piperidin-4-yl)amino)-7-oxo-7,8-dihydropyrido[2,3-d]pyrimidine-6-carbonitrile] | 7 nM | 5.5 nM | – | 7 nM | 87 nM | 670 nM | 107 nM |
| N#Cc1cc2cnc(Nc3ccc4c(c3)CCNC4)nc2n(C23CC(C2)C3)c1=O [Compound No. 370, 8-(bicyclo[1.1.1]pentan-1-yl)-7-oxo-2-((1,2,3,4-tetrahydroisoquinolin-6-yl)amino)-7,8-dihydropyrido[2,3-d]pyrimidine-6-carbonitrile] | 124 nM | 47 nM | – | 242 nM | 2730 nM | 1220 nM | 445 nM |
| N#Cc1cc2cnc(NC3CCN(S(=O)(=O)C(F)(F)F)CC3)nc2n(C2CCCC2)c1=O [Compound No. 371, 8-cyclopentyl-7-oxo-2-((1-((trifluoromethyl)sulfonyl)piperidin-4-yl)amino)-7,8-dihydropyrido[2,3-d]pyrimidine-6-carbonitrile] | 14 nM | 25 nM | – | 3410 nM | > 5000 nM | 2600 nM | 515 nM |
| CS(=O)(=O)N1CCC(Nc2ncc3cc(C4CC4)c(=O)n(C4CCCC4)c3n2)CC1 [Compound No. 379, 8-cyclopentyl-6-cyclopropyl-2-((1-(methylsulfonyl)piperidin-4-yl)amino)pyrido[2,3-d]pyrimidin-7(8H)-one] | 16 nM | 67 nM | – | 434 nM | > 3620 nM | 4720 nM | 1220 nM |
| C[C@@]1(O)CCC[C@H]1n1c(=O)c(C#N)cc2cnc(NC3CCN(S(C)(=O)=O)CC3)nc21 [Compound No. 380, 8-((1R,2R)-2-hydroxy-2-methylcyclopentyl)-2-(1-(methylsulfonyl)piperidin-4-ylamino)-7-oxo-7,8-dihydropyrido[2,3-d]pyrimidine-6-carbonitrile] | 30 nM | 15 nM | – | 5.5 nM | 55 nM | 715 nM | 1220 nM |
| CCCCCc1ccc(S(=O)(=O)N2CCC(Nc3ncc4cc(C#N)c(=O)n(C5CCCC5)c4n3)CC2)cc1 [Compound No. 381, 8-cyclopentyl-7-oxo-2-(1-(4-pentylphenylsulfonyl)piperidin-4-ylamino)-7,8-dihydropyrido[2,3-d]pyrimidine-6-carbonitrile] | > 200 nM | 120 nM | – | 57 nM | > 3570 nM | > 10000 nM | 743 nM |
| CCCCCCc1ccc(S(=O)(=O)N2CCC(Nc3ncc4cc(C#N)c(=O)n(C5CCCC5)c4n3)CC2)cc1 [Compound No. 382, 8-cyclopentyl-2-(1-(4-hexylphenylsulfonyl)piperidin-4-ylamino)-7-oxo-7,8-dihydropyrido[2,3-d] pyrimidine-6-carbonitrile] | > 200 nM | > 200 nM | – | 209 nM | > 4860 nM | > 10000 nM | 1840 nM |
